Values quoted from earlier work, collected in patent EP0137640A1, “Chain extended analogues of methotrexate and aminopterin” (DANA-FARBER CANCER INSTITUTE, INC., priority 1983, dated 1985).

Test system: carboxypeptidase Gl
Details: as described by Chabner et al. (1972) Nature, 239, 395

For `CN(Cc1cnc2nc(N)nc(N)c2n1)c1ccc(C(=O)N[C@@H](CCC(=O)O)C(=O)O)cc1` [MTX, 4-amino-4-deoxy-N^10-methyl-pteroylglutamic acid], the “cleavage by carboxypeptidase Gl” value is given as “rapidly cleaved”.
